Results: ChEMBL document CHEMBL5223136, “Covalent drugs targeting histidine - an unexploited opportunity?” (RSC Med Chem, 2022)

How the values were obtained:
[1] = Metabolic stability in human plasma assessed as half life and measured upto 240 mins by LC-MS/MS analysis; type: ADME, cell-free
[2] = Microsomal stability in human liver microsomes assessed as intrinsic clearance and measured upto 60 mins in presence of NADPH by LC-MS/MS analysis; type: ADME, Microsome; conditions: read-out: CLH
[3] = Metabolic stability in human hepatocytes assessed as intrinsic clearance and measured upto 60 mins in presence of NADPH by LC-MS/MS analysis; type: ADME, cell-based, Hepatocyte; conditions: read-out: CLH

**Q.** What does the source list for O=C1CCC(N2Cc3ccccc3C2=O)C(=O)N1 (configuration not stated)?
**A.** half-life [1]: 1.98 h; CLint scaled [2]: < 6.1 mL/min/kg; CLint scaled [3]: < 9.6 mL/min/kg

**Q.** What does the source list for O=C1CCC(N2Cc3ccc(S(=O)(=O)F)cc3C2=O)C(=O)N1 (configuration not stated)?
**A.** CLint scaled [2]: 13.7 mL/min/kg; CLint scaled [3]: < 9.6 mL/min/kg

**Q.** Which results are given for O=C1CCC(N2Cc3ccc(OS(=O)(=O)F)cc3C2=O)C(=O)N1 (configuration not stated)?
**A.** CLint scaled [2]: < 6.1 mL/min/kg; CLint scaled [3]: < 9.6 mL/min/kg
